Data taken from patent US7495027B2, “3-aryl-4-hydroxyfuranone compounds and the human and animal health use thereof” (Wyeth, priority 2003, dated 2009).

tested on: C. elegans; test: Efficacy against nematodes (C. elegans motility rating); set-up: key: 0: no effect; 7: reduced movement in 24 h; 8: dead in 24 h; 9: dead in 4 h; conditions: dose 200 μM, observations at 4 h and 24 h postimmersion
Experimental: Evaluation of the Efficacy of a 3-Aryl-4-Hydroxyfuranone Against Nematodes
In this evaluation, cultures of C. elegans are maintained on E. coli lawns on Nematode Growth Agar at 20° C. New cultures are established twice a week. Nematodes for testing are rinsed from plates using M9 Buffer. […] One μL of this solution is added to each well of a 96 well plate. A mixture of C. elegans in M9 Buffer (100 μL) is added to each well, such that approximately 50 worms of mixed stages (L1, L2, L3, L4 and adults) are present in each well at a final concentration of 100 ppm, 150 ppm or […] of test compound. Concentration of test compound may be varied by gradient dilution of the stock DMSO solution. Observations are made under a dissecting microscope at 4 h and 24 h postimmersion. A rating is based on the motility of the larvae and adults, using the rating system shown below.

`O=C1O/C(=C\c2cc(C(F)(F)F)ccc2F)C(O)=C1c1cccc(-c2ccccc2)c1` [R=H; R1=3-biphenyl; R2=2-F-5-CF3—C6H3] and `O=C1O/C(=C\c2cc(F)cc(C(F)(F)F)c2)C(O)=C1c1cccc(-c2ccccc2)c1` [R=H; R1=3-biphenyl; R2=3-F-5-CF3—C6H3] are the same in Rating: 9 for the first, 9 for the second.

Going from `Cc1ccc(C2=C(O)/C(=C/c3cccc(C(F)(F)F)c3Cl)OC2=O)cc1` [R=H; R1=4-CH3—C6H4; R2=2-Cl-3-CF3—C6H3] to `Cc1ccc(C2=C(O)/C(=C/c3cc(C(F)(F)F)ccc3Cl)OC2=O)cc1` [R=H; R1=4-CH3—C6H4; R2=2-Cl-5-CF3—C6H3], the Rating falls from 9 to 0.

same assay, conditions: dose 100 ppm, observations at 4 h and 24 h postimmersion

Going from `O=C1OC(=Cc2ccc(OCC3CC3)cc2)C(O)=C1c1ccc(Cl)cc1` (mixture of isomers) to `O=C1OC(=Cc2ccc(Cl)cc2)C(O)=C1c1ccc(C(F)(F)F)cc1` (mixture of isomers) [R=H; R1=4-CF3—C6H4**; R2=4-Cl—C6H4], the Rating rises from 7 to 9.

`Cc1c(C=C2OC(=O)C(c3ccc(OC(F)(F)F)cc3)=C2O)cnn1-c1ccc(F)cc1` (mixture of isomers) and `Cc1c(C=C2OC(=O)C(c3ccc(OC(F)(F)F)cc3)=C2O)cnn1-c1ccccc1` (mixture of isomers) are the same in Rating: 0 for the first, 0 for the second.

Going from `Cc1cc(C=C2OC(=O)C(c3ccc(OC(F)(F)F)cc3)=C2O)n(C)n1` (mixture of isomers) to `O=C1OC(=Cc2ccc(Br)o2)C(O)=C1c1ccc(OC(F)(F)F)cc1` (mixture of isomers), the Rating rises from 0 to 9.

`O=C1OC(=Cc2ccc(-n3cncn3)cc2)C(O)=C1c1ccc(OC(F)(F)F)cc1` (mixture of isomers) and `O=C1OC(=Cc2ccc(-n3cccc3)cc2)C(O)=C1c1ccc(OC(F)(F)F)cc1` (mixture of isomers) are the same in Rating: 9 for the first, 9 for the second.

`CN1CCN(c2ccc(C=C3OC(=O)C(c4ccc(OC(F)(F)F)cc4)=C3O)cc2)CC1` (mixture of isomers) and `O=C1OC(=Cc2ccc(N3CCOCC3)nc2)C(O)=C1c1ccc(OC(F)(F)F)cc1` (mixture of isomers) are the same in Rating: 0 for the first, 0 for the second.

`N#Cc1ccc(-c2ccc(C=C3OC(=O)C(c4ccc(OC(F)(F)F)cc4)=C3O)cc2)cc1` (mixture of isomers) and `O=C1OC(=Cc2ccc(-c3ccc(Cl)cc3)cc2)C(O)=C1c1ccc(OC(F)(F)F)cc1` (mixture of isomers) are the same in Rating: 9 for the first, 9 for the second.

First: O=C1OC(=Cc2ccc(-c3cccs3)cc2)C(O)=C1c1ccc(OC(F)(F)F)cc1 (mixture of isomers)
Second: O=C1OC(=Cc2ccncc2)C(O)=C1c1ccc(OC(F)(F)F)cc1 (mixture of isomers) [R=H; R1=4-OCF3—C6H4**; R2=pyridine-4-yl]
The Rating of the first is higher: 9 for the first, 0 for the second.

`O=C1OC(=Cc2ccc(-c3ccccn3)s2)C(O)=C1c1ccc(OC(F)(F)F)cc1` (mixture of isomers) and `O=C1OC(=Cc2ccc(Oc3ccccc3)nc2)C(O)=C1c1ccc(OC(F)(F)F)cc1` (mixture of isomers) are the same in Rating: 9 for the first, 9 for the second.

`O=C1OC(=Cc2ccc(C(F)(F)F)cc2)C(O)=C1c1ccc(C(F)(F)F)cc1` (mixture of isomers) [R=H; R1=4-CF3—C6H4**; R2=4-CF3—C6H4] and `O=C1OC(=Cc2ccc(C(F)(F)F)cc2)C(O)=C1c1ccc(Cl)cc1` (mixture of isomers) [R=H; R1=4-Cl—C6H4**; R2=4-CF3—C6H4] are the same in Rating: 9 for the first, 9 for the second.

`N#Cc1ccc(C=C2OC(=O)C(c3ccc(C(F)(F)F)cc3)=C2O)cc1` (mixture of isomers) [R=H; R1=4-CF3—C6H4**; R2=4-CN—C6H4] and `N#Cc1ccc(C2=C(O)C(=Cc3ccc(C(F)(F)F)cc3)OC2=O)cc1` (mixture of isomers) [R=H; R1=4-CN—C6H4**; R2=4-CF3-C6H4] are the same in Rating: 9 for the first, 9 for the second.

`N#Cc1ccc(C2=C(O)C(=Cc3ccc(Cl)cc3Cl)OC2=O)cc1` (mixture of isomers) [R=H; R1=4-CN—C6H4**; R2=2,4-diCl—C6H4] and `N#Cc1ccc(C2=C(O)C(=Cc3ccc(Cl)c(Cl)c3)OC2=O)cc1` (mixture of isomers) [R=H; R1=4-CN—C6H4**; R2=3,4-diCl—C6H4] are the same in Rating: 9 for the first, 9 for the second.

`O=C1OC(=Cc2ccccc2C(F)(F)F)C(O)=C1c1ccc(Cl)cc1` (mixture of isomers) [R=H; R1=4-Cl—C6H4**; R2=2-CF3—C6H4] and `O=C1OC(=Cc2ccc(C(F)(F)F)c(F)c2)C(O)=C1c1ccc(Cl)cc1` (mixture of isomers) [R=H; R1=4-Cl—C6H4**; R2=3-F-4-CF3—C6H4] are the same in Rating: 9 for the first, 9 for the second.

`O=C1OC(=Cc2ccc(SC(F)(F)F)cc2)C(O)=C1c1ccc(Cl)cc1` (mixture of isomers) [R=H; R1=4-Cl—C6H4**; R2=4-SCF3—C6H4] and `O=C1OC(=Cc2ccc(C(F)(F)F)cc2F)C(O)=C1c1ccc(OC(F)(F)F)cc1` (mixture of isomers) [R=H; R1=4-OCF3—C6H4**; R2=2-F-4-CF3—C6H3] are the same in Rating: 9 for the first, 9 for the second.

For `O=C1OC(=Cc2cc(F)cc(C(F)(F)F)c2)C(O)=C1c1ccc(OC(F)(F)F)cc1` (mixture of isomers) [R=H; R1=4-OCF3—C6H4**; R2=3-F-5-CF3—C6H3], the Rating was 9.

same assay, conditions: dose 150 ppm, observations at 4 h and 24 h postimmersion

`O=C1OC(=Cc2cccc(Cl)c2)C(O)=C1c1ccc(Cl)cc1` (mixture of isomers) [R=H; R1=4-Cl—C6H4**; R2=3-Cl—C6H4] and `N#Cc1ccc(C=C2OC(=O)C(c3ccc(Cl)cc3)=C2O)cc1` (mixture of isomers) [R=H; R1=4-Cl—C6H4**; R2=4-CN—C6H4] are the same in Rating: 9 for the first, 9 for the second.

`COC1=C(c2cccc(C(F)(F)F)c2)C(=O)O/C1=C\c1cccc(C(F)(F)F)c1` [R=CH3; R1=3-CF3—C6H4; R2=3-CF3—C6H4] and `COC1=C(c2cccc(C(F)(F)F)c2)C(=O)O/C1=C\c1ccccc1` [R=CH3; R1=3-CF3—C6H4; R2=C6H5] are the same in Rating: 0 for the first, 0 for the second.

`COC1=C(c2ccc(Cl)cc2)C(=O)O/C1=C\c1ccccc1` [R=CH3; R1=4-Cl—C6H4; R2=C6H5] and `COC1=C(c2ccc(OC)cc2)C(=O)O/C1=C\c1ccccc1` [R=CH3; R1=4-OCH3—C6H4; R2=C6H5] are the same in Rating: 0 for the first, 0 for the second.

`COC1=C(c2ccc(OC)cc2)C(=O)O/C1=C\c1cccc(C(F)(F)F)c1` [R=CH3; R1=4-OCH3—C6H4; R2=3-CF3—C6H4] and `COC1=C(c2ccccc2)C(=O)O/C1=C\c1cccc(C(F)(F)F)c1` [R=CH3; R1=C6H5; R2=3-CF3—C6H4] are the same in Rating: 0 for the first, 0 for the second.

`O=C1O/C(=C\c2cccc3ccccc23)C(O)=C1c1cccc2ccccc12` [R=H; R1=1-naphthyl; R2=1-naphthyl] and `O=C1O/C(=C\c2ccc(Cl)cc2)C(O)=C1c1cccc2ccccc12` [R=H; R1=1-naphthyl; R2=4-Cl—C6H4] are the same in Rating: 0 for the first, 0 for the second.

Going from `O=C1O/C(=C\c2cccc(C(F)(F)F)c2)C(O)=C1c1cccc2ccccc12` [R=H; R1=1-naphthyl; R2=3-CF3—C6H4] to `O=C1O/C(=C\c2cccc(C(F)(F)F)c2)C(O)=C1c1ccc2ccccc2c1` [R=H; R1=2-naphthyl; R2=3-CF3—C6H4], the Rating rises from 0 to 9.

Going from `O=C1O/C(=C\c2ccc(-c3ccccc3F)cc2)C(O)=C1c1ccccc1F` [R=H; R1=2-F—C6H4; R2=4-(2′-F-biphenyl)] to `O=C1O/C(=C\c2ccccc2-c2ccc(Cl)cc2)C(O)=C1c1ccc(Cl)cc1` [R=H; R1=4-Cl—C6H4; R2=2-(4′-Cl-biphenyl)], the Rating falls from 8 to 0.

`O=C1O/C(=C\c2cccc3ccccc23)C(O)=C1c1cccc(C=NO)c1` [R=H; R1=3-(C═NOH)—C6H4; R2=1-naphthyl] and `O=Cc1cccc(C2=C(O)/C(=C/c3cccc4ccccc34)OC2=O)c1` [R=H; R1=3-CHO—C6H4; R2=1-naphthyl] are the same in Rating: 0 for the first, 0 for the second.

First: O=C1O/C(=C\c2ccccc2)C(O)=C1c1cccc(C(F)(F)F)c1 [R=H; R1=3-CF3—C6H4; R2=C6H5]
Second: O=C1O/C(=C\c2cccc(C(F)(F)F)c2)C(O)=C1c1cccc(-c2ccccc2)c1 [R=H; R1=3-biphenyl; R2=3-CF3—C6H4]
The Rating of the first is higher: 8 for the first, 0 for the second.

First: O=C1OC(=Cc2cccc3ccccc23)C(O)=C1c1cccc(CO)c1 [R=H; R1=3-CH2OH—C6H4; R2=1-naphthyl]
Second: CC(=NO)c1ccc(C2=C(O)C(=Cc3cccc4ccccc34)OC2=O)cc1 [R=H; R1=4-(CH3C═NOH)—C6H4; R2=1-naphthyl]
The Rating of the first is lower: 0 for the first, 7 for the second.

Compared with `N#Cc1cccc(C2=C(O)/C(=C/c3ccc(-c4cccc(C#N)c4)cc3)OC2=O)c1` [R=H; R1=3-CN—C6H4; R2=4-(3′-CN-biphenyl)], `N#Cc1ccc(C2=C(O)C(=Cc3ccc(-c4ccc(C#N)cc4)cc3)OC2=O)cc1` [R=H; R1=4-CN—C6H4; R2=4-(4′-CN-biphenyl)] is higher in Rating: 0 for the first, 8 for the second.

Going from `O=C1O/C(=C\c2ccccc2-c2cccc(Cl)c2)C(O)=C1c1cccc(Cl)c1` [R=H; R1=3-Cl—C6H4; R2=2-(3′-Cl-biphenyl)] to `O=C1O/C(=C\c2cccc3ccccc23)C(O)=C1c1ccc(C(F)(F)F)cc1` [R=H; R1=4-CF3—C6H4; R2=1-naphthyl], the Rating rises from 0 to 9.

`N#Cc1ccc(/C=C2\OC(=O)C(c3ccc(C#N)cc3)=C2O)cc1` [R=H; R1=4-CN—C6H4**; R2=4-CN—C6H4] and `N#Cc1ccc(C2=C(O)C(=Cc3ccc(Cl)cc3)OC2=O)cc1` [R=H; R1=4-CN—C6H4**; R2=4-Cl—C6H4] are the same in Rating: 9 for the first, 9 for the second.

First: COC(=O)c1ccc(C2=C(O)/C(=C/c3cccc4ccccc34)OC2=O)cc1 [R=H; R1=4-CO2CH3—C6H4; R2=1-naphthyl]
Second: CC(=O)c1ccc(C2=C(O)C(=Cc3ccccc3C(F)(F)F)OC2=O)cc1 [R=H; R1=4-COCH3—C6H4; R2=2-CF3—C6H4]
The Rating of the first is higher: 9 for the first, 0 for the second.
